Measurements: US20220031684A1, “PROPHYLACTIC EFFICACY OF SEROTONIN 4 RECEPTOR AGONISTS AGAINST STRESS” (THE TRUSTEES OF COLUMBIA UNIVERSITY IN THE CITY OF NEW YORK, priority 2019, published 2022)
Structures can show the parent of a compound that is named as a salt.

Columns and labels:
5-HT4R = details: cited from earlier work
CA3 pyramidal cells = experiment: Whole-cell voltage clamp recordings of spontaneous EPSCs in CA3 slices; assay type: cell-based, mice; details: (R,S)-ketamine 30 mg/kg or prucalopride 3 mg/kg injected 1 week before slicing
Method: (§1) This chronic CORT elevation dysregulates the hypothalamic-pituitary-adrenal axis (HPA) in a manner similar to that observed in clinical depression. The dose and duration of CORT treatment was selected based on previous studies. CORT (35 μg/ml, equivalent to about 5 mg/kg/day) dissolved in 0.45% hydroxypropyl-o-cyclodextrin (0-CD) or vehicle (VEH) (0.45% j-CD) was available ad libitum in the drinking water in opaque bottles to protect it from light. VEH- and CORT-treated water was changed every 3 days to prevent possible degradation. Contextual Fear Conditioning (CFC): A 3-shock CFC procedure was administered as previously published. Briefly, mice were placed into context A and administered 3 2-s shocks (0.75 mA) at 180 s, 240 s or 300 s following placement into context A. Mice were removed from the context 15 s following the termination of shock (at 317 s). For context retrieval, mice were placed back into context A for 300 s. Electrophysiology: Electrophysiology was conducted as previously described. Statistical Analysis: Results from data analyses are expressed as means±SEM. Alpha was set to 0.05 for all analyses. Data were analyzed using GraphPad Prism v7.0 or v8.0. For all experiments, unless otherwise noted, one- or two-way ANOVAs with repeated-measures were applied to the data as appropriate. Significant main effects and/or interactions were followed by Fisher's PLSD post hoc analysis or unpaired t-tests. Drugs: All drugs were prepared in physiological saline and all injections were administered intraperitoneally (i.p.) in volumes of 0.1 cc per […] body weight unless otherwise noted. Fluoxetine hydrochloride (Flx): Flx (BioTrend Chemicals AG, BG197, Zurich, Germany) was administered in the drinking water (18 mg/kg/day) for 3 weeks before the start of CORT. […] (R,S)-ketamine (K): (R,S)-ketamine (Ketaset III, Ketamine HCl injection, Fort Dodge Animal Health, Fort Dodge, Iowa) was administered in a single dose at 30 mg/kg of body weight 1 week before the start of CFC. […] PF-04995274: PF-04995274 (Sigma, Catalog No. 1331782-27-4, St. Louis, Mo.) was administered a single dose at 3 or 10 mg/kg of body weight 1 week before the start of CFC. PF-04995274 was dissolved in saline using an ultrasonic homogenizer (BioLogics, Model 3000, Manassas, Va.). Osmotic minipump implantation: ALZET osmotic minipumps (Model 2004, […], 28 days) were implanted subcutaneously under isoflurane anesthesia as previously described [S2]. Osmotic minipumps were rotated under the skin two to three times per week. Behavioral Assays: All experiments were approved by the Institutional Animal Care and Use Committee (IACUC) at the New York Psychiatric Institute (NYSPI). Elevated Plus Maze (EPM): Testing was performed as previously described [S3]. Briefly, the maze is a plus-cross-shaped apparatus consisting of four arms, two open and two enclosed by walls, linked by a central platform at a height of 50 cm from the floor. Mice were individually placed in the center of the maze facing an open arm and were allowed to explore the maze for 5 min. The time spent in and the number of entries into the open arms was used as an anxiety index. Videos were scored using ANY-maze behavior tracking software (Stoelting, Wood Dale, Ill.). Novelty-Suppressed Feeding: The NSF is a conflict test that elicits competing motivations: the drive to eat and the fear of venturing into the center of a brightly lit arena. The latency to feed is used as an index of anxiety-like behavior, because classical anxiolytic drugs decrease this measure. The NSF test was carried out during an 8 min period as previously described [S3]. Briefly, the testing apparatus consisted of a plastic box (50×50×20 cm), the floor of which was covered with approximately 2 cm of bedding. For 129S6/SvEv experiments, mice were food restricted for 12 h. For the C57BL/6N experiments, mice were food restricted for 24 h. […]

129S6/SvEv mice [1] = experiment: 3-shock contextual fear conditioning (CFC); assay type: in vivo
Method: as §1

[2] = target: hERG (human Ether-a-go-go Related Gene) channels (Homo sapiens, UniProt Q12809); details: cited from earlier work
Sequence of hERG (human Ether-a-go-go Related Gene) channels (Q12809 whole entry): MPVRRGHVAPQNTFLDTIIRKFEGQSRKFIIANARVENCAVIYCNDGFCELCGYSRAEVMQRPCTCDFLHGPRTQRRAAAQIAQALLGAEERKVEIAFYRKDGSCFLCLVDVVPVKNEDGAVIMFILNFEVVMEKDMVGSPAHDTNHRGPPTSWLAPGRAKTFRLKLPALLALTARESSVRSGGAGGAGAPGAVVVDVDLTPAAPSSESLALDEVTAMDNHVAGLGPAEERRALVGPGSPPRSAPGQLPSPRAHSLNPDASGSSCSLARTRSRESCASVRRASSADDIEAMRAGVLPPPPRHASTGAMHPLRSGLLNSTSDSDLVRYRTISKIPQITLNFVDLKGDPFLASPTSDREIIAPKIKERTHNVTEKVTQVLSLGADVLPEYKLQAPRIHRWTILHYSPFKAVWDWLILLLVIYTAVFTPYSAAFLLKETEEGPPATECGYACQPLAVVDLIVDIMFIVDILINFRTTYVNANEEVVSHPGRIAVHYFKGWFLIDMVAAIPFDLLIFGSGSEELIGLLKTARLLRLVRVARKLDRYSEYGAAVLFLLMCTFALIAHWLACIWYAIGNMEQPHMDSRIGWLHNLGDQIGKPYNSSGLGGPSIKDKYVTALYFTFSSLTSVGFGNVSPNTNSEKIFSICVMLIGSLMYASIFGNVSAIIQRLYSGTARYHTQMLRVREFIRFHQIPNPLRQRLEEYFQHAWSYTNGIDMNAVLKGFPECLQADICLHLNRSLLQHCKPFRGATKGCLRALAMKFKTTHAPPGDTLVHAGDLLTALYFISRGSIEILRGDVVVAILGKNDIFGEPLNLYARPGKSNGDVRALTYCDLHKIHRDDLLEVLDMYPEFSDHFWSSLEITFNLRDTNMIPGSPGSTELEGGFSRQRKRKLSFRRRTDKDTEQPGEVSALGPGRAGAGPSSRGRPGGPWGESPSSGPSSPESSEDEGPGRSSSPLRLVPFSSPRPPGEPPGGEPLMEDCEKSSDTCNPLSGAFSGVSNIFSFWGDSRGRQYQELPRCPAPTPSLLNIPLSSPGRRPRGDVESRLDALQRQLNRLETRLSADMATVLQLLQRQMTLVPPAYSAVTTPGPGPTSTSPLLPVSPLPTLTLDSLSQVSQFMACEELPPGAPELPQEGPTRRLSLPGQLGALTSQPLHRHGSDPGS

129S6/SvEv mice [3] = experiment: Forced swim test (FST) after CFC; assay type: in vivo
Method: as §1

[4] = FIG. 4 cohort, Male, FIG. 4C, RMANOVA, Fisher's LSD
[5] = FIG. 4 cohort, Male, FIG. 4D, ANOVA, Fisher's LSD
[6] = FIG. 4 cohort, Male, FIG. 4F, RMANOVA, Fisher's LSD
[7] = FIG. 4 cohort, Male, FIG. 4G, ANOVA, Fisher's LSD

## COCCCN1CCC(NC(=O)c2cc(Cl)c(N)c3c2OCC3)CC1 [Prucalopride, 4-amino-5-chloro-2,3-dihydro-N-[1-3-methoxypropyl)-4-piperidinyl]-7-benzofuran carboxamide monohydrochloride]
5-HT4R
  Affinity (pKi): 8.1-8.6
CA3 pyramidal cells
  average EPSC amplitude vs saline: no differences
  large AMPA receptor-mediated bursts of EPSCs: not present
  number of EPSCs vs saline: no differences
129S6/SvEv mice [1]; [4]
  p, CFC Re-exposure Freezing (%), Prucalopride (3 mg/kg) vs. PF04995274 (3 mg/kg): 0.0014
  p, CFC Re-exposure Freezing (%), Prucalopride (3 mg/kg) vs. PF04995274 (10 mg/kg): 0.2229
  p, CFC Re-exposure Freezing (%), Prucalopride (3 mg/kg) vs. Prucalopride (10 mg/kg): 0.0004
  p, CFC Re-exposure Freezing (%), Prucalopride (10 mg/kg) vs. PF04995274 (3 mg/kg): 0.7981
  p, CFC Re-exposure Freezing (%), Prucalopride (10 mg/kg) vs. PF04995274 (10 mg/kg): 0.0568
  p, CFC Re-exposure Freezing (%), Saline vs. Prucalopride (3 mg/kg): 0.0004
  p, CFC Re-exposure Freezing (%), Saline vs. Prucalopride (10 mg/kg): 0.4723
129S6/SvEv mice [1]; [5]
  p, CFC Re-exposure, Prucalopride (3 mg/kg) vs. PF04995274 (3 mg/kg): 0.0014
  p, CFC Re-exposure, Prucalopride (3 mg/kg) vs. PF04995274 (10 mg/kg): 0.2229
  p, CFC Re-exposure, Prucalopride (3 mg/kg) vs. Prucalopride (10 mg/kg): 0.0004
  p, CFC Re-exposure, Prucalopride (10 mg/kg) vs. PF04995274 (3 mg/kg): 0.7981
  p, CFC Re-exposure, Prucalopride (10 mg/kg) vs. PF04995274 (10 mg/kg): 0.0568
  p, CFC Re-exposure, Saline vs. Prucalopride (3 mg/kg): 0.0004
  p, CFC Re-exposure, Saline vs. Prucalopride (10 mg/kg): 0.4723
129S6/SvEv mice [1]; male 129S6/SvEv, (R,S)-ketamine 30, prucalopride 3 or 10, PF-04995274 3 or 10 mg/kg, 1 week before CFC, vs saline
  freezing during CFC training: comparable levels of freezing
129S6/SvEv mice [1]; male 129S6/SvEv, single i.p. injection 1 week before CFC, re-exposure 5 days later, 3 mg/kg
  freezing at re-exposure to the training context (learned fear) vs saline: attenuated learned fear
[2]
  affinity for the hERG channels: no affinity
129S6/SvEv mice [3]; [6]
  p, FST Day 2 Immobility Time (sec), Prucalopride (3 mg/kg) vs. PF04995274 (3 mg/kg): 0.2475
  p, FST Day 2 Immobility Time (sec), Prucalopride (3 mg/kg) vs. PF04995274 (10 mg/kg): 0.4224
  p, FST Day 2 Immobility Time (sec), Prucalopride (3 mg/kg) vs. Prucalopride (10 mg/kg): 0.0568
  p, FST Day 2 Immobility Time (sec), Prucalopride (10 mg/kg) vs. PF04995274 (3 mg/kg): 0.6674
  p, FST Day 2 Immobility Time (sec), Prucalopride (10 mg/kg) vs. PF04995274 (10 mg/kg): 0.0209
  p, FST Day 2 Immobility Time (sec), Saline vs. Prucalopride (3 mg/kg): 0.0052
  p, FST Day 2 Immobility Time (sec), Saline vs. Prucalopride (10 mg/kg): 0.1772
129S6/SvEv mice [3]; [7]
  p, FST Day 2 Immobility Time (min 3-6) (sec), Prucalopride (3 mg/kg) vs. PF04995274 (3 mg/kg): 0.4089
  p, FST Day 2 Immobility Time (min 3-6) (sec), Prucalopride (3 mg/kg) vs. PF04995274 (10 mg/kg): 0.3387
  p, FST Day 2 Immobility Time (min 3-6) (sec), Prucalopride (3 mg/kg) vs. Prucalopride (10 mg/kg): 0.0622
  p, FST Day 2 Immobility Time (min 3-6) (sec), Prucalopride (10 mg/kg) vs. PF04995274 (3 mg/kg): 0.4653
  p, FST Day 2 Immobility Time (min 3-6) (sec), Saline vs. Prucalopride (3 mg/kg): 0.0093
  p, FST Day 2 Immobility Time (min 3-6) (sec), Saline vs. Prucalopride (10 mg/kg): 0.2443
129S6/SvEv mice [3]; FIG. 4 cohort, Male, FIG. 4G, ANOVA, Fisher's LSD, PF04995274 dose stands below the shown rows
  p, FST Day 2 Immobility Time (min 3-6) (sec), Prucalopride (10 mg/kg) vs. PF04995274: 0.0156
129S6/SvEv mice [3]; male 129S6/SvEv, (R,S)-ketamine 30, prucalopride 3 or 10, PF-04995274 3 or 10 mg/kg
  immobility, FST day 1: comparable levels of immobility
129S6/SvEv mice [3]; male 129S6/SvEv, single injection 1 week before CFC, 3 mg/kg
  immobility time, FST day 2 vs saline: decreased immobility time
